Like-named read-outs stand apart in the source and are kept apart here. No end group written: not given here.
Experiments:
[1] = tested on: WI38; settings: MTT, 24 hours with peptide; normal fibroblast line
[2] = tested on: Staphylococcus aureus ATCC 6538; test: Antimicrobial assay I, MIC by OD measurement; type: cell-based; settings: 37° C. for 24 hours, absorbance 620 nm
[3] = tested on: Pseudomonas aeruginosa ATCC 9027; test: Antimicrobial assay I, MIC by OD measurement; type: cell-based; settings: 37° C. for 24 hours, absorbance 620 nm
[4] = tested on: E. coli UB1005; type: cell-based, Escherichia coli; settings: mean of three; 16 to 20 hours at 35° C.; in µg/mL
[5] = in vitro; settings: human, WI38 normal lung fibroblast cells, LD50 WI38, WI38 normal lung fibroblast line, MTT, 24 hours with peptide
[6] = tested on: P. aeruginosa H774; type: cell-based, Pseudomonas aeruginosa; settings: P. aeruginosa H744; nalidixic acid + peptide at ¼ MIC; 0.5 or less = synergy
Description: (§1) The synergistic effects of the inventive peptides with either chloramphenicol or nalidixic acid against efflux mutants of Pseudomonas aeruginosa were investigated. The MIC values were determined for either nalidixic acid or chloramphenicol alone as baselines. Peptides were added at their ¼ MIC concentration, and the concentration of either nalidixic acid or chloramphenicol to arrive at the MIC was determined. […] The fractional inhibitory concentration (FIC) index was used to determine synergy between peptides and antibiotics. Two-fold serial dilutions of antibiotic were tested in the presence of a constant amount of peptide, equal to one quarter of peptide MIC. The FIC index was determined as follows: FIC=0.25+MICantibiotic in combination/MICantibiotic alone. An FIC index of 0.5 or less is considered as synergy.

[7] = tested on: P. aeruginosa H374; type: cell-based, Pseudomonas aeruginosa; settings: for MIC Cm-comb.: MIC of chloramphenicol with peptide at ¼ MIC; for MIC Nal-comb.: MIC of nalidixic acid with peptide at ¼ MIC; for FIC Index: 0.5 or less = synergy
Description: as §1

[8] = tested on: P. aeruginosa; type: cell-based, Pseudomonas aeruginosa; settings: P. aeruginosa H744; MIC of nalidixic acid with peptide at ¼ MIC
Description: as §1

[9] = tested on: yeast (Saccharomyces cerevisiae); test: Antimicrobial assay I, yeast assay in RPMI 1640; type: cell-based; settings: RPMI 1640 media
[10] = tested on: S. typhimurium 14028S; type: cell-based, Salmonella typhimurium; settings: mean of three; 16 to 20 hours at 35° C.; in µg/mL
[11] = tested on: SW480; test: Anti-cancer assay, MTT, LD50; type: cell-based; settings: SW480 colon adenocarcinoma line, 24 hours with peptide
From the text: (§2) Numbers are LD50 values (μg/mL).

[12] = tested on: PC3; test: Anti-cancer assay, MTT, LD50; type: cell-based; settings: 24 hours with peptide, prostate adenocarcinoma
From the text: as §2

[13] = tested on: BMKC; test: Anti-cancer assay, MTT, LD50; type: cell-based; settings: BMKC cloned melanoma line, 24 hours with peptide
From the text: as §2

[14] = tested on: H1299; test: Anti-cancer assay, MTT, LD50; type: cell-based; settings: 24 hours with peptide, lung large cell carcinoma
From the text: as §2

[15] = tested on: HeLaS3; test: Anti-cancer assay, MTT, LD50; type: cell-based; settings: 24 hours with peptide, cervical carcinoma
From the text: as §2

[16] = tested on: MCF7; test: Anti-cancer assay, MTT, LD50; type: cell-based; settings: MCF7 breast adenocarcinoma line, MTT, 24 hours with peptide
From the text: as §2

[17] = tested on: P. aeruginosa H374; type: cell-based, Pseudomonas aeruginosa; settings: mean of three; 16 to 20 hours at 35° C.
[18] = in vitro; type: cell-based, human; settings: human, human red blood cells, pH 7, hemolytic assay, concentration at 50% hemolysis, 1 hour at 37° C.; read-out: LD50
[19] = tested on: human red blood cells (RBC); test: in vitro; type: cell-based; settings: hemolytic assay, concentration at 50% hemolysis, 1 hour at 37° C.
[20] = chloramphenicol + peptide at ¼ MIC
[21] = nalidixic acid + peptide at ¼ MIC, FIC=0.25+MIC comb/MIC alone

Row | Substance | WI38 LD50 [1] | staph6538 (MIC) [2] | paerug9027 (MIC) [3] | CC50 at 24 h [5] | FIC Index [6] | MIC Cm-comb. [7] | MIC Nal-comb. [7] | FIC Index [7, 20] | FIC Index [7, 21] | MIC Nal-comb. [8] | yeast (MIC or MFC) [9] | LD50 SW480 [11] | PC3 LD50 [12] | LD50 BMKC [13] | H1299 LD50 [14] | HeLaS3 LD50 [15] | LD50 MCF7 [16] | HC50 at 1 h [18] | also measured
1 | FAKKLAKKLKKLAKKLAK-OH [P71] | 355 µg/mL | 15 µg/mL | 15 µg/mL | 355 µg/mL | 1.25 | 8 µg/mL | 2500 µg/mL | 0.75 | 0.75 | 624 µg/mL | 200 µg/mL | 250 µg/mL | 270 µg/mL | 445 µg/mL | 320 µg/mL | 570 µg/mL | 190 µg/mL |  | E. coli UB1005 MIC [4]: 2; S. typhimurium 14028S MIC [10]: 8; P. aeruginosa H374 MIC [17]: 4 µg/mL
2 | FAKLLAKALKLKL-NH2 [P101] | 300 µg/mL | 10 µg/mL | 25 µg/mL | 300 µg/mL | 1.25 | 16 µg/mL | 5000 µg/mL | 1.25 | 1.25 | 624 µg/mL | 100 µg/mL | 170 µg/mL | 730 µg/mL | 160 µg/mL | 340 µg/mL | 170 µg/mL | 250 µg/mL | 550 µg/mL | 
3 | KLALKLALKALKAAKLA-NH2 [P150] | 125 µg/mL | 100 µg/mL | 10 µg/mL | 125 µg/mL | 0.75 | 8 µg/mL | 1250 µg/mL | 0.75 | 0.5 | 312 µg/mL | > (> indicates greater than 200 μg/mL) | 235 µg/mL | 74 µg/mL | 190 µg/mL | 185 µg/mL | 320 µg/mL | 160 µg/mL | 650 µg/mL | 
4 | FAKLLAKLAKLKL-NH2 [P66] | 240 µg/mL | 5 µg/mL | 50 µg/mL | 240 µg/mL | 1.25 | 16 µg/mL | 5000 µg/mL | 1.25 | 1.25 | 624 µg/mL | 100 µg/mL | 145 µg/mL | 170 µg/mL | 200 µg/mL | 130 µg/mL | 140 µg/mL | 90 µg/mL | 600 µg/mL | 
5 | FAKKLAKKLKKLAKKLAKLAKKL-NH2 [P307, reference compound] | 75 µg/mL |  |  | 75 µg/mL | 0.5 | 2 µg/mL | 625 µg/mL | 0.375 | 0.375 | 156 µg/mL |  | 73 µg/mL | 66 µg/mL | 83 µg/mL | 160 µg/mL | 100 µg/mL | 38 µg/mL |  | LD50 [19]: > (> indicates greater than 1000)
6 | FAKLLAKALKKFL-NH2 [P118] | 170 µg/mL | 10 µg/mL | 100 µg/mL | 170 µg/mL | 1.25 | 16 µg/mL | 2500 µg/mL | 1.25 | 0.75 | 624 µg/mL | 100 µg/mL | 115 µg/mL | 330 µg/mL | 135 µg/mL | 74 µg/mL | 87 µg/mL | 70 µg/mL | 700 µg/mL | 
7 | FAKLLAKALKKL-NH2 [P103] | 26 µg/mL | 10 µg/mL | 25 µg/mL | 26 µg/mL | 1.25 | 8 µg/mL | 625 µg/mL | 0.75 | 0.375 | 624 µg/mL | 100 µg/mL | 90 µg/mL | 330 µg/mL | 75 µg/mL | 150 µg/mL | 70 µg/mL | 46 µg/mL | 650 µg/mL | 
